From patent EP4810484A1, “NEUROACTIVE ANDROGEN RECEPTOR MODULATOR AND USE THEREOF” (Endochem Pharmaceuticals (Beijing) Co., Ltd., priority 2023, dated 2025) come the findings set out here.

Data set [1] can be described thus: Log P (Table 1, no method described).
Data set [2] can be described thus: Mouse blood-brain barrier permeation assay (LC-MS/MS of serum and brain). The conditions noted are these: for concentrations of the compound detected in serum and brain (in words): 20 mg/kg intraperitoneal. It counts as in vivo, C57BL/6J mice. As for the experimental part: Mouse blood-brain barrier permeation assay
Blood was collected by decapitation from the mice (each time point/3 mice) at the following time points: 30 min, 1 h, 2 h, 3 h, 4 h, 8 h, and brain tissue and blood were harvested at 12 h, 24 h, 36 h, 48 h and 72 h. • (3) When collecting serum, heparin sodium blood collection tubes were used.
The supernatant was filtered through a 0.22 µm filter and analyzed by LC-MS/MS.

Data set [3] addresses T1, recombinant human androgen receptor (AR) protein (Homo sapiens, UniProt P10275).
T1 construct: RPB252Hu03, Ile673-His918 with N-terminal His Tag; His tag (N); purchased CLOUD-CLONE CORP; WUHAN RPB252Hu03
T1 sequence (P10275 673-918): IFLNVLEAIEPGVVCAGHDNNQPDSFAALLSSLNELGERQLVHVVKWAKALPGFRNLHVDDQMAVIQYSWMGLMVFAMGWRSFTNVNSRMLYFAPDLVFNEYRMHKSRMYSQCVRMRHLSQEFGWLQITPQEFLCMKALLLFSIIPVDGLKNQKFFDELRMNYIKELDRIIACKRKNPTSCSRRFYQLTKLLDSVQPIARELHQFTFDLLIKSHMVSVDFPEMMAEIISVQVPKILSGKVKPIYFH
Put plainly: Small molecule-protein affinity (protein-ligand coupling) assay, Biacore T200 SPR. It counts as binding. The conditions noted are these: summary of Table 1.

Another data set has as its target T2, androgen receptors (Homo sapiens, UniProt P10275).
T2 construct: expressed in transfected cells; host or cells: HEK293T (ATCC, CRL-3216)
T2 sequence (P10275 1-920): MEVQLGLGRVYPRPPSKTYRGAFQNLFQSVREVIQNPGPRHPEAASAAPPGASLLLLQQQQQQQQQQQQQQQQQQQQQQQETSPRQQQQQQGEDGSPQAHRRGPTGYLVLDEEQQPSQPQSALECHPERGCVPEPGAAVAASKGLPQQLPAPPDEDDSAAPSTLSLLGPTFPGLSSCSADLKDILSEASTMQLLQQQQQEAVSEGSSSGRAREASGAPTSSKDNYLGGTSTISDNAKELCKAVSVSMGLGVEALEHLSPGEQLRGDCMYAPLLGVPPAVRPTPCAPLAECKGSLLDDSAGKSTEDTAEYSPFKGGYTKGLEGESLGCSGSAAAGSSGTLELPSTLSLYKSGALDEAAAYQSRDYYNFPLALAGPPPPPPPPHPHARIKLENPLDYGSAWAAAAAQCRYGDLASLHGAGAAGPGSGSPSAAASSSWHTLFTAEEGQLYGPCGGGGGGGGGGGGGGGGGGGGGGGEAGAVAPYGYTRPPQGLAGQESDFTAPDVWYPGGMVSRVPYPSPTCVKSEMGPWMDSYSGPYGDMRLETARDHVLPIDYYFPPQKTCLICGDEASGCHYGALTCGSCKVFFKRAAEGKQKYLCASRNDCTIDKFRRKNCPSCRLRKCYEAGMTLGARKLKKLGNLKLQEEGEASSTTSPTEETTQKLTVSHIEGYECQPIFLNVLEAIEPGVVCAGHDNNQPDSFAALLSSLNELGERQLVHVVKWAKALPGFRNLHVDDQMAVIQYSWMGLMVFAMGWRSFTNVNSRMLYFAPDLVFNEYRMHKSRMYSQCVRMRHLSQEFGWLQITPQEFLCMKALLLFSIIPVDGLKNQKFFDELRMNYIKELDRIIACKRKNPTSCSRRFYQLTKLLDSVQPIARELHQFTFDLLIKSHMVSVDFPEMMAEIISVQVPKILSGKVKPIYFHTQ
Kind of data set: Androgen Receptor Reporter Gene Assay in plasmid-transfected HEK293T cells. It counts as cell-based. The conditions noted are these: HEK-293T. A general note: Reporter assays use an easily measured gene product as a stand-in for the process of interest.

The term logP denotes the decadic logarithm of the partition coefficient of the neutral form, usually between octanol and water. A high value points to a more lipophilic compound. Turning to `C[C@](O)(Cn1cnc(C(F)(F)F)cc1=O)C(=O)Nc1cnc(C#N)c(C(F)(F)F)c1` [Example 1], in data set [1], the logP is 2.62.

`C[C@](O)(Cn1cnc(C(F)(F)F)cc1=O)C(=O)Nc1ccc(C#N)c(C(F)(F)F)c1` [Example 2] had a lipophilicity (logP) in data set [1] of 3.53.

For the compound `C[C@](O)(COc1ccc(C#N)cc1)C(=O)Nc1cnc(C#N)c(C(F)(F)F)c1` [Example 3, (S)-N-(6-cyano-5-(trifluoromethyl)pyridin-3-yl)-3-(4-cyanophenoxy)-2-hydroxy-2-methylpropionamide], the “concentrations of the compound detected in serum and brain (in words)” value (“concentrations of the compound detected” for short) in data set [2] is “certain concentrations of the compound were detected in serum and brain up to 72 h after administration”. Also, in data set [1], the logP is 2.53.

In data set [1], `C[C@](O)(COc1ccc(C#N)nc1)C(=O)Nc1ccc(C#N)c(C(F)(F)F)c1` [Example 4, (S)-N-(4-cyano-3-(trifluoromethyl)phenyl)-3-((6-cyanopyridin-3-yl)oxy)-2-hydroxy-2-methylpropionamide] registered a logP of 2.53.

The compound `C[C@](O)(COc1ccc(C#N)nc1)C(=O)Nc1cnc(C#N)c(C(F)(F)F)c1` [Example 5, (S)-N-(6-cyano-5-(trifluoromethyl)pyridin-3-yl)-3-((6-cyanopyridin-3-yl)oxy)-2-hydroxy-2-methylpropionamide] returned a logP in data set [1] of 1.61.

In the case of `C[C@](O)(COc1ccc(C#N)c(F)c1)C(=O)Nc1cnc(C#N)c(C(F)(F)F)c1` [Example 8, (S)-3-(4-cyano-3-fluorophenoxy)-N-(6-cyano-5-(trifluoromethyl)pyridin-3-yl)-2-hydroxy-2-methylpropionamide], in data set [2], the “concentrations of the compound detected” value is “certain concentrations of the compound were detected in serum and brain up to 72 h after administration”.

Compound `C[C@@](COc1ccc(C#N)nc1)(OC(=O)c1cccnc1)C(=O)Nc1ccc(C#N)c(C(F)(F)F)c1` [Example 11, (S)-1-((4-cyano-3-(trifluoromethyl)phenyl)amino)-3-((6-cyanopyridin-3-yl)oxy)-2-methyl-1-oxopropan-2-yl nicotinate] registered a logP in data set [1] of 3.32.

Regarding `C[C@@](COc1ccc(C#N)cc1)(OC(=O)c1cccnc1)C(=O)Nc1cnc(C#N)c(C(F)(F)F)c1` [Example 13, (S)-1-((6-cyano-5-(trifluoromethyl)pyridin-3-yl)amino)-3-(4-cyanophenoxy)-2-methyl-1-oxopropan-2-yl nicotinate], the “concentrations of the compound detected” value in data set [2] was “lower concentrations of the compound and higher concentrations of metabolites were detected in serum and brain”. Also, in data set [1], the logP amounted to 3.32.

Compound `CN(C)CCC(=O)O[C@@](C)(COc1ccc(C#N)cc1)C(=O)Nc1cnc(C#N)c(C(F)(F)F)c1` [Example 14, (S)-1-((6-cyano-5-(trifluoromethyl)pyridin-3-yl)amino)-3-(4-cyanophenoxy)-2-methyl-1-oxopropyl-2-yl 3-(dimethylamino)propanate] showed a logP in data set [1] of 2.86.

Consider `C[C@@](COc1ccc(C#N)cc1)(OC(=O)CCCC[C@@H]1CCSS1)C(=O)Nc1cnc(C#N)c(C(F)(F)F)c1` [Example 15, (S)-1-((6-cyano-5-(trifluoromethyl)pyridin-3-yl)amino)-3-(4-cyanophenoxy)-2-methyl-1-oxopropyl-2-yl 5-((R)-1,2-dithiolan-3-yl) pentanoate], for which the “concentrations of the compound detected” value in data set [2] is “no effective concentration of the compound was detected in serum and brain”.

The compound `CCCS(=O)(=O)O[C@@](C)(COc1ccc(C#N)cc1)C(=O)Nc1cnc(C#N)c(C(F)(F)F)c1` [Example 17, (S)-1-((6-cyano-5-(trifluoromethyl)pyridin-3-yl)amino)-3-(4-cyanophenoxy)-2-methyl-1-oxopropan-2-yl propane-1-sulfonate] yielded a logP in data set [1] of 3.07.

As to `CN1CCC(C(=O)O[C@@](C)(COc2ccc(C#N)cc2)C(=O)Nc2cnc(C#N)c(C(F)(F)F)c2)CC1` [Example 19, (S)-1-((6-cyano-5-(trifluoromethyl)pyridin-3-yl)amino)-3-(4-cyanophenoxy)-2-methyl-1-oxopropyl-2-yl-1-methylpiperidine-4-carboxylate], the logP in data set [1] stood at 3.2.

As for `CC(C)C(=O)O[C@@](C)(COc1ccc(C#N)cc1)C(=O)Nc1cnc(C#N)c(C(F)(F)F)c1` [Example 21, (S)-1-((6-cyano-5-(trifluoromethyl)pyridin-3-yl)amino)-3-(4-cyanophenoxy)-2-methyl-1-oxopropan-2-yl isobutyrate], the “concentrations of the compound detected” value in data set [2] was “lower concentrations of the compound and higher concentrations of metabolites were detected in serum and brain”.

Turning to `CC(=O)O[C@@](C)(COc1ccc(C#N)cc1)C(=O)Nc1cnc(C#N)c(C(F)(F)F)c1` [Example 24, (S)-1-((6-cyano-5-(trifluoromethyl)pyridin-3-yl)amino)-3-(4-cyanophenoxy)-2-methyl-1-oxopropan-2-yl acetate], the “bioavailability in the brain” value in data set [2] (compared with the compound of Example 3) is listed as “significantly improved”. The compound also had a logP in data set [1] of 2.76.

For the compound `C[C@@](COc1ccc(C#N)cc1)(OC(=O)c1ccccc1)C(=O)Nc1cnc(C#N)c(C(F)(F)F)c1` [Example 26, (S)-1-((6-cyano-5-(trifluoromethyl)pyridin-3-yl)amino)-3-(4-cyanophenoxy)-2-methyl-1-oxopropan-2-yl benzoate], the “affinity to the androgen receptor proteins (in words)” value in data set [3] was “strong affinity”. For the same compound, the “concentrations of the compound detected” value in data set [2] was “lower concentrations of the compound and higher concentrations of metabolites were detected in serum and brain”. For the same compound, the logP in data set [1] turned out to be 4.65.

Turning to `CCC(=O)O[C@@](C)(COc1ccc(C#N)cc1)C(=O)Nc1cnc(C#N)c(C(F)(F)F)c1` [Example 28, (S)-1-((6-cyano-5-(trifluoromethyl)pyridin-3-yl)amino)-3-(4-cyanophenoxy)-2-methyl-1-oxopropan-2-yl-propionate], the “concentrations of the compound detected” value in data set [2] was “lower concentrations of the compound and higher concentrations of metabolites were detected in serum and brain”.

Take `CN1C=CCC(C(=O)O[C@@](C)(COc2ccc(C#N)cc2)C(=O)Nc2ccc(C#N)c(C(F)(F)F)c2)=C1` [Example 35, (S)-1-((4-cyano-3-(trifluoromethyl)phenyl)amino)-3-(4-cyanophenoxy)-2-methyl-1-oxopropan-2-yl 1-methyl-1,4-dihydropyridine-3-carboxylate]: the logP in data set [1] was found to be 4.45.

The Emax is the size of the effect at its maximum, as opposed to the concentration needed. As to `C[C@](O)(COc1ccc(C#N)cc1)C(=O)Nc1ccc(C#N)c(C(F)(F)F)c1` [Ostarine, reference compound], the “affinity to the androgen receptor proteins (in words)” value in data set [3] is recorded as “no binding affinity”. The compound further returned an Emax on androgen receptors of 78.4%. Moreover, the logP in data set [1] was 3.49.
